The text below walks through data of the supplement of paper PMC10307832.

Assay in all cases: relative viability (nuclei count vs DMSO), 5 days (fraction); higher = more cells survive
Compound in the assay “Kobe2602 + Crizotinib”: C1=CC(=CC=C1NC(=S)NNC2=C(C=C(C=C2[N+](=O)[O-])C(F)(F)F)[N+](=O)[O-])F [Kobe2602] + C[C@@H](Oc1cc(-c2cnn(C3CCNCC3)c2)cnc1N)c1c(Cl)ccc(F)c1Cl [Crizotinib] (partner 1 µM)
An outline of the steps: (§1)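 Relative viability was taken as the ratio of nuclei in treated wells to nuclei in vehicle wells. Lung cancer cell lines in 1536-well plates received compounds by pin tool one day after seeding, either one drug alone or a fixed anchor-drug dose plus five library-drug doses (not always all listed) in √10 steps. Nuclei were counted on 4× images after 5 days of treatment, and values are medians of duplicate plates.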

Compound in the assay “Cabozantinib + Lapatinib”: COc1cc2nccc(Oc3ccc(NC(=O)C4(C(=O)Nc5ccc(F)cc5)CC4)cc3)c2cc1OC [Cabozantinib] + CS(=O)(=O)CCNCc1ccc(-c2ccc3ncnc(Nc4ccc(OCc5cccc(F)c5)c(Cl)c4)c3c2)o1 [Lapatinib] (partner 2 µM)
Summed up: as §1

Compound in the assay “Kobe2602 + Navitoclax”: C1=CC(=CC=C1NC(=S)NNC2=C(C=C(C=C2[N+](=O)[O-])C(F)(F)F)[N+](=O)[O-])F [Kobe2602] + CC1(C)CCC(c2ccc(Cl)cc2)=C(CN2CCN(c3ccc(C(=O)NS(=O)(=O)c4ccc(N[C@H](CCN5CCOCC5)CSc5ccccc5)c(S(=O)(=O)C(F)(F)F)c4)cc3)CC2)C1 [Navitoclax] (partner 0.5 µM)
Summed up: as §1

Compound in the assay “Cabozantinib + Alpelisib”: COc1cc2nccc(Oc3ccc(NC(=O)C4(C(=O)Nc5ccc(F)cc5)CC4)cc3)c2cc1OC [Cabozantinib] + Cc1nc(NC(=O)N2CCC[C@H]2C(N)=O)sc1-c1ccnc(C(C)(C)C(F)(F)F)c1 [Alpelisib] (partner 2 µM)
Summed up:
as §1

As to UMC-11, the relative viability with Kobe2602 + Crizotinib (first compound 0.2 µM) was 0.578; in the assay with Kobe2602 + Crizotinib (first compound 0.6325 µM), 0.545; with Kobe2602 + Crizotinib (first compound 2 µM), 0.672; in the assay with Kobe2602 + Crizotinib (first compound 6.325 µM), 0.619; with Kobe2602 + Crizotinib (first compound 20 µM), 0.639; with Cabozantinib + Lapatinib (first compound 0.02 µM) it was 1.05. In addition, the relative viability came to 1.41 with Cabozantinib + Lapatinib (first compound 0.06325 µM); 0.86 with Cabozantinib + Lapatinib (first compound 0.2 µM); 1.07 with Cabozantinib + Lapatinib (first compound 0.6325 µM); 0.91 with Cabozantinib + Lapatinib (first compound 2 µM); 0.322 in the assay with Kobe2602 + Navitoclax (first compound 0.2 µM); 0.327 with Kobe2602 + Navitoclax (first compound 0.6325 µM). Besides, the relative viability was 0.292 with Kobe2602 + Navitoclax (first compound 2 µM); 0.312 with Kobe2602 + Navitoclax (first compound 6.325 µM); 0.316 with Kobe2602 + Navitoclax (first compound 20 µM); 0.848 in the assay with Cabozantinib + Alpelisib (first compound 0.02 µM); 1.1 with Cabozantinib + Alpelisib (first compound 0.06325 µM); 1.01 with Cabozantinib + Alpelisib (first compound 0.2 µM). For the same cell line, the relative viability came out at 1.05 with Cabozantinib + Alpelisib (first compound 0.6325 µM) and 1.02 with Cabozantinib + Alpelisib (first compound 2 µM).
